# Values of other authors as cited in US20050085485A1, “Orally dispersible pharmaceutical piribedil composition” (priority 2002, published 2005).
# Conditions: humans
structure (smiles),measurement,setting,value
"c1cnc(N2CCN(Cc3ccc4c(c3)OCO4)CC2)nc1 [piribedil, Piribedil]",period over which therapeutic levels are spread out,"currently marketed prolonged-release form, 50 mg dose",more than 24 hours
same,bioavailability by the oral route,oral route in relation to the parenteral route,low
